Source: ChEMBL document CHEMBL1629433, “Synthesis and pharmacological evaluation of the stereoisomers of 3-carba cyclic-phosphatidic acid” (Bioorg Med Chem Lett, 2010)
Activity calls are given as the source filed them. The rule behind the calls is not given here.

Key:
[1] = target: T1, Autotaxin (Homo sapiens, UniProt Q13822); assay: Inhibition of recombinant ATX mediated hydrolysis of FS-3 at 0.5 to 2 times IC50
[2] = target: T1, Autotaxin; assay: Inhibition of recombinant ATX mediated hydrolysis of FS-3
[3] = target: Lysophosphatidic acid receptor 5 (Homo sapiens) (UniProt Q9H1C0); assay: Agonist activity at LPA5 receptor expressed in rat B103 cells assessed as calcium mobilization at >1 uM; type: functional, cell-based
Lysophosphatidic acid receptor 5 (Homo sapiens), sequence (Q9H1C0 whole entry): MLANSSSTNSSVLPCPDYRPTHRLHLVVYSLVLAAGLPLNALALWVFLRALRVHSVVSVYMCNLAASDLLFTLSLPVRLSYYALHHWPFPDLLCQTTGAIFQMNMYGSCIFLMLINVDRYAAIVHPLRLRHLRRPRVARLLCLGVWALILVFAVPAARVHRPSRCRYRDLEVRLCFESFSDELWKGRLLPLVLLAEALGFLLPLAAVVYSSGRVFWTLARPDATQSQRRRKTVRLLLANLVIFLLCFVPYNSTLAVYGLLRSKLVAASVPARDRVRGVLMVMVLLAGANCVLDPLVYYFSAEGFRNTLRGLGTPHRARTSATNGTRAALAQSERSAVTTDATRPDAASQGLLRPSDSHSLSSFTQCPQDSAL

[4] = tested on: B16-F10; assay: Antitumor activity against mouse B16-F10 cells grafted in C57/BL6 mouse assessed as inhibition of lung metastases of cancer cells at 0.5 mg/kg/day, ip administered for 10 days and measured on day 21; type: functional, organism-based

inhibition [1] | Ki [2] | Activity [3] | Compound | inhibition [4]
Active | 0.8 µM | Active | CCCCCCCCCCCCCCCCCC(=O)OC[C@H]1CCP(=O)(O)O1 | Active
Active | 1.6 µM | Active | CCCCCCCCCCCCCCCCCC(=O)OC[C@@H]1CCP(=O)(O)O1 | Active
 |  |  | CCCCCCCCCCCCCCCCCC(=O)OCC1CCP(=O)(O)O1 (racemic) | Active
